# Tested on: rat heart tissue
# Test: GENECALLING differential gene expression analysis after dosing of serotonin modulating agents
# Assay type: in vivo, Sprague Dawley rats
# In short: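 GENECALLING profiling of cDNA from total RNA, keeping gene fragments modulated beyond ±1.5-fold. Tissue collected 24 h after final dosing of serotonin modulating agents; control rats received sterile water or canola oil.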
smiles,measurement,setting,value
CNCCC(Oc1ccc(C(F)(F)F)cc1)c1ccccc1 (stereo not drawn) [fluoxetine],"Effects on Transcription Level: Novel gene fragment, 524 bp, 86% SI to mouse F-box protein FBX6b [AF176526]",CARDIOTOX 1,+1.3 fold
same,"Effects on Transcription Level: Novel gene fragment, 306 bp, 91% SI to mouse low density lipoprotein receptor related protein 4 [AB013874]",CARDIOTOX 2,−1.3 fold
same,"Effects on Transcription Level: Novel gene fragment, 540 bp, 97% SI to mouse skeletal muscle alpha-actin [X03766]",CARDIOTOX 3,−1.2 fold
same,"Effects on Transcription Level: Novel gene fragment, 80 bp",CARDIOTOX 4,−1.3 fold
same,"Effects on Transcription Level: Novel gene fragment, 957 bp, 99% SI to kidney injury associated moleculer HW036 [V80591]",CARDIOTOX 5,−1.4 fold
same,"Effects on Transcription Level: Novel gene fragment, 282 bp, 85% SI to human KIAA1515 protein [AB040948]",CARDIOTOX 6,−1.2 fold
same,"Effects on Transcription Level: Novel gene fragment, 405 bp, 88% SI to human 2-oxoglutarate dehydrogenase [D10523]",CARDIOTOX 7,+1.2 fold
same,Effects on Transcription Level: UCP2,"CARDIOTOX 8, GenBank AB010743",−1.3 fold
same,Effects on Transcription Level: Plasma membrane Ca2 + ATPase-isoform 1,"CARDIOTOX 9, GenBank J03753",−1.1 fold
same,"Effects on Transcription Level: Novel gene fragment, 242 bp, 97% SI to mouse HSP86 heat-shock protein [X16857]",CARDIOTOX 10,+1.4 fold
same,"Effects on Transcription Level: Novel gene fragment, 280 bp, 65% SI to human TRF1-interacting, ankyrin-related ADP-ribose polymerase [AF082556]",CARDIOTOX 11,+1.3 fold
same,"Effects on Transcription Level: Novel gene fragment, 348 bp, 88% SI to mouse Sec61 protein complex gamma subunit [U11027]",CARDIOTOX 12,+1.2 fold
same,"Effects on Transcription Level: Novel gene fragment 553 bp, 93% SI to mouse Sid329 [AB024984]",CARDIOTOX 13,+1.1 fold
same,Effects on Transcription Level: Kruppel-like transcription factor,"CARDIOTOX 14, GenBank AB020759",+1.3 fold
same,Effects on Transcription Level: Ribosomal protein L3,"CARDIOTOX 15, GenBank X62166",+1.1 fold
same,Effects on Transcription Level: Glucose-regulated protein (GRP) 75,"CARDIOTOX 16, GenBank S78556",+1.3 fold
same,Effects on Transcription Level: Immunoglobulin heavy chain binding protein (BiP),"CARDIOTOX 17, GenBank M14050",+1.4 fold
same,Effects on Transcription Level: Membrane-spannining proteoglycan NG2,"CARDIOTOX 18, GenBank X56541",−1.2 fold
same,"Effects on Transcription Level: Novel gene fragment, 1294 bp, 96% SI to mouse Sui 1 (elF) homolog [AF129888]",CARDIOTOX 19,+1.1 fold
same,"Effects on Transcription Level: Novel gene fragment, 723 bp, 85% SI to human translation initiation factor elF3 p40 subunit [U54559]",CARDIOTOX 20,+1.0 fold
same,"Effects on Transcription Level: Novel gene fragment, 1324 bp, 76% SI to human flavoprotein subunit of complex II [D30648]",CARDIOTOX 21,+1.3 fold
same,"Effects on Transcription Level: Novel gene fragment, 852 bp, 81% SI to human vacuolar proton-ATPase subunit M9.2 [Y15286]",CARDIOTOX 22,+1.2 fold
same,"Effects on Transcription Level: Novel gene fragment, 178 bp, 91% SI to mouse myosin light chain-2 isoform MLC-2a [S70785]",CARDIOTOX 23,+1.3 fold
same,"Effects on Transcription Level: Novel gene fragment, 167 bp, 90% SI to mouse Rab20 [X80332]",CARDIOTOX 24,−1.2 fold
same,"Effects on Transcription Level: Novel gene fragment, 1070 bp, 80% SI to human muscle-specific protein [AF249873]",CARDIOTOX 25,+1.3 fold
same,"Effects on Transcription Level: Novel gene fragment, 1143 bp, 82% SI to human sarcoma amplified sequence (SAS) [U01160]",CARDIOTOX 26,+1.2 fold
same,"Effects on Transcription Level: Novel gene fragment, 74 bp,75% SI to human secreted protein [X30160] (from patent database)/[X97578] (from patent database)/potential cytokine)",CARDIOTOX 27,+1.2 fold
same,"Effects on Transcription Level: Novel gene fragment, 408 bp, 90% SI to human CGI-07 protein [AF132941]",CARDIOTOX 28,+1.2 fold
same,"Effects on Transcription Level: Novel gene fragment, 618 bp, 95% SI to rat progression related cDNA, ZNPE-120 3′ end partial sequence [patent database X90805]",CARDIOTOX 29,+1.4 fold
same,"Effects on Transcription Level: Novel gene fragment, 717 bp",CARDIOTOX 30,+1.2 fold
same,"Effects on Transcription Level: Novel gene fragment, 546 bp",CARDIOTOX 31,+1.1 fold
same,"Effects on Transcription Level: Novel gene fragment, 920 bp, 91% SI to human HSPC061 [AF161546]",CARDIOTOX 32,+1.4 fold
same,"Effects on Transcription Level: Novel gene fragment, 203 bp, 92% SI to rabbit sarcoplasmic reticulum glycoprotein [J04480]",CARDIOTOX 33,−1.4 fold
same,"Effects on Transcription Level: Novel gene fragment, 178 bp, 68% SI to mouse IgG receptor (beta-Fc-gamma-RII)[M63159]",CARDIOTOX 34,+1.3 fold
same,Effects on Transcription Level: Ribosomal protein L6,"CARDIOTOX 35, GenBank X87107",+1.2 fold
same,Effects on Transcription Level: CAP2 protein (adenylyl cyclase-associated protein 2),"CARDIOTOX 36, GenBank U31935",+1.4 fold
same,Effects on Transcription Level: Alpha-platelet-derived growth factor receptor,"CARDIOTOX 37, GenBank M63837",+1.3 fold
same,Effects on Transcription Level: Rab GD1 alpha protein,"CARDIOTOX 38, GenBank X74402",−1.3 fold
same,Effects on Transcription Level: PKC-zeta-interacting protein,"CARDIOTOX 39, GenBank Y08355",+1.1 fold
same,Effects on Transcription Level: ERK or MAP kinase,"CARDIOTOX 40, GenBank X65198",+1.3 fold
same,Effects on Transcription Level: Peroxisomal multifunctional enzyme type II,"CARDIOTOX 41, GenBank U37486",+1.3 fold
same,Effects on Transcription Level: HBP23 (heme-binding protein 23 kDa),"CARDIOTOX 42, GenBank D30035",+1.3 fold
same,Effects on Transcription Level: Caveolae-associated protein,"CARDIOTOX 43, GenBank U90725",+1.3 fold
same,Effects on Transcription Level: Prenylated rab acceptor 1 (PRA1),"CARDIOTOX 44, GenBank AF025506",+1.2 fold
same,"Effects on Transcription Level: Novel gene fragment, 337 bp, 88% SI to rabbit cardiac ryanodine receptor (RyR-2)[U50465]",CARDIOTOX 45,+1.3 fold
same,"Effects on Transcription Level: Novel gene fragment, 81 bp, 85% SI to human titin [X90568]",CARDIOTOX 46,−1.1 fold
same,"Effects on Transcription Level: Novel gene fragment, 428 bp, 86% SI to human titin [X90568]",CARDIOTOX 47,+1.1 fold
same,"Effects on Transcription Level: Novel gene fragment, 374 bp, 88% SI to human titin [X90568]",CARDIOTOX 48,+1.1 fold
same,"Effects on Transcription Level: Novel gene fragment, 428 bp, 85% SI to human titin [90568]",CARDIOTOX 49,−1.3 fold
same,"Effects on Transcription Level: Novel gene fragment, 1216 bp, 93% SI to mouse mircotubule-associated protein (MAP) 1B protein [AF115776]",CARDIOTOX 50,−1.2 fold
same,"Effects on Transcription Level: Novel gene fragment, 1115 bp, 83% SI to human KIAA0549 protein [AB011121]",CARDIOTOX 51,−1.4 fold
same,"Effects on Transcription Level: Novel gene fragment, 153 bp",CARDIOTOX 52,−1.4 fold
same,"Effects on Transcription Level: Novel gene fragment, 89 bp, 93% SI to human putative glialblastoma cell differentiation-related protein (GBDR1) [AF068195]",CARDIOTOX 53,−1.0 fold
same,Effects on Transcription Level: Rho-associated kinase beta,"CARDIOTOX 54, GenBank U61266",−1.2 fold
same,Effects on Transcription Level: Adenylate kinase 3,"CARDIOTOX 55, GenBank D13062",+1.3 fold
same,Effects on Transcription Level: Amyloid beta-peptide binding protein,"CARDIOTOX 56, GenBank AF049878",+1.3 fold
same,Effects on Transcription Level: Mitochondrial adenine nuleotide translocator,"CARDIOTOX 57, GenBank D12771",+1.4 fold
same,"Effects on Transcription Level: Novel gene fragment, 710 bp, 94% SI to mouse chromatin structural protein homolog Supt5 hp (Supt5 h)[U88539]",CARDIOTOX 58,+2.8 fold
same,"Effects on Transcription Level: Novel gene fragment, 186 bp, 66% SI to human N-acetylglucosaminyltransferase 1 (GlcNAc-TI)[M55621]",CARDIOTOX 60,−2.7 fold
same,"Effects on Transcription Level: Novel gene fragment, 238 bp, 95% SI to mouse MAP kinase-activated protein kinase 2 [X76850]",CARDIOTOX 61,−1.7 fold
same,"Effects on Transcription Level: Novel gene fragment, 173 bp, 70% SI to G protein-coupled receptor kinase GRK4 [X97568]",CARDIOTOX 62,−4.7 fold
same,"Effects on Transcription Level: Novel gene fragment, 133 bp, 77% SI to human apoptosis related protein hSARP3 [patent database: V19114]",CARDIOTOX 63,−2.6 fold
same,"Effects on Transcription Level: Novel gene fragment, 477 bp, 98% SI to peroxisomal phytanoyl-CoA hydroxylase (PHYH) [AF121345]",CARDIOTOX 64,+3.7 fold
same,"Effects on Transcription Level: Novel gene fragment, 413 bp, 95% SI to mouse dihydrolipoamide dehydrogenase (Dld) [U73445]",CARDIOTOX 65,+2.0 fold
same,"Effects on Transcription Level: Novel gene fragment, 726 bp, 76% SI to human succinate dehydrogenase flavoprotein subunit (SDH) [L21936]",CARDIOTOX 66,−4.4 fold
same,"Effects on Transcription Level: Novel gene fragment, 440 bp, 92% SI to mouse cytochrome c oxidase Vllc [X52940]",CARDIOTOX 67,+2.1 fold
same,"Effects on Transcription Level: Novel gene fragment, 276 bp, 80% SI to human titin [X90568]",CARDIOTOX 68,−11.0 fold
same,"Effects on Transcription Level: Novel gene fragment, 149 bp, 70% SI to human titin [X90568]",CARDIOTOX 69,−3.7 fold
same,"Effects on Transcription Level: Novel gene fragment, 467 bp, 94% SI to mouse gelsolin [J04953]",CARDIOTOX 70,−3.8 fold
